Assay results from patent publication US10251824B2, “Method for inducing pluripotent stem cells and pluripotent stem cells prepared by said method” (AMOREPACIFIC CORPORATION, priority 2013, dated 2019).

How the values were obtained:
[1] = test system: alkaline phosphatase (ALP); conditions: 5 μg/mL shikimic acid; day 11
Description: Untreated NHDF-Neonatal were used as a negative control group. On day 6 after the treatment, the cells (5,000 cells) were attached on a 12-well plate. 5 days later, i.e., on day 11, the cells were fixed with 3.8% formaldehyde in PBS and kept at room temperature for 15 minutes. Then, the cells were treated with 200 μL of the NBT/BCIP® ALP substrate solution diluted in 10 mL of ALP buffer, with 0.5 mL each time. 20 hours later, the cells were observed under the Olympus CKX41 optical microscope at 40× magnification.

[2] = test system: NHDF-Neonatal; assay: Proliferating ability of dermal cells, WST-1 (Test Example 5); type: cell-based, human; conditions: 5 μg/mL shikimic acid; WST-1, absorbance 450 nm
Description: 2,000 NHDF-Neonatal (CC-2509, Lonza, USA) were attached on a 96-well plate. […] Then, we were subculturing it for 7 days (as confluency becomes to 90% or below on 7th day). After 6 days later, 10 μL of WST-1 was treated and absorbance was measured at 450 nm.

[3] = test system: alkaline phosphatase (ALP); assay: Alkaline phosphatase (ALP) staining, shikimic acid at different concentrations (Test Example 3-2); type: cell-based, human; conditions: 10 μM or 10 mM shikimic acid; day 12; versus normal HDF
Source text: On day 5 after the treatment, the cells (100,000 cells) were attached on a 6-well plate.

[4] = test system: NHDF-Neonatal; assay: Colony-forming ability of dermal cells, crystal violet (Test Example 4-1); type: cell-based, human; conditions: shikimic acid, concentration not given; absorbance 580 nm
Description: (§1) On day 10 after subculturing, the cells (200 cells) were attached on a 60-mm plate. On day 23, the cells were washed with ice-cold PBS and then fixed with ice-cold methanol kept at −20° C. for 10 minutes. The cells were stained by treating for 5-10 minutes with a working solution, which had been prepared by diluting 1% crystal violet in an ethanol stock solution 1/10 with PBS, washed 4 times with PBS and then imaged. For quantitative analysis, the cells were eluted by treating with an elution buffer consisting of 50% ethanol, 40% DW, and 10% acetic acid for 5 minutes. Then, absorbance was measured at 580 nm after transferring 200 μL of the cells to a 96-well plate.

[5] = test system: NHDF-Neonatal; assay: Colony-forming ability of dermal cells, crystal violet (Test Example 4-2); type: cell-based, human
Description: as §1, with “day 5” for “day 10”, “day 17,” for “day 23,”

[6] = test system: Oct3/4; assay: Oct3/4 immunocytochemistry after digitonin permeabilization (Test Example 2-1); type: cell-based, human; conditions: 5 μg/mL shikimic acid (water); permeabilized NHDF-Neonatal; day 4
Description: (§2) Then, 400× images were obtained using the Carl Zeiss Confocal microscope LSM510 by immunocytochemistry using Oct3/4 antibody (Genetex, GTX100622, ×200) and Alexa Fluor® 488 goat anti-rabbit IgG. The ratio of Oct3/4-positive cells was determined by analyzing the Carl Zeiss Confocal microscopic images obtained from the Oct3/4 ICC experiment, for 4 or more images per sample, 5 on average.

[7] = test system: Oct3/4; assay: Oct3/4 immunocytochemistry, shikimic acid at different concentrations (Test Example 2-2); type: cell-based, human; conditions: for Ratio of Oct3/4-positive cells (%) Mean: NHDF-Neonatal, day 8
Description: as §2

## O=C(O)C1=C[C@@H](O)[C@@H](O)[C@H](O)C1 [shikimic acid]
[1]
  Expression of ALP (FIG. 12): increased expression of ALP
[2]
  Increase of cell division as compared to the normal control group (FIG. 18): 2 times
[3]
  Expression of ALP (FIG. 13): the expression of ALP was increased remarkably
[4]
  Increase of colony-forming ability as compared to the negative control group (FIG. 16): about 3.8 times
[5]; 10 μM, 50 μM, 100 μM, 1 mM or 10 mM shikimic acid, absorbance 580 nm, day 17
  Increase of colony-forming ability as compared to the negative control group (FIG. 17): 1.27-5.06 times
[5]; 10 μM-10 mM shikimic acid, day 17, versus negative control
  Crystal violet stained area, colony formation (FIG. 15): larger stained area
[5]; 1 mM shikimic acid
  Colony-forming ability, comparison of concentrations (FIG. 17): the most increase in colony-forming ability
[6]
  Ratio of Oct3/4-positive cells (%) Mean: 29%
[7]; 10 μM or 10 mM shikimic acid, compared to untreated normal HDF
  Expression of the Oct3/4 gene in HDF (FIG. 11): increased expression of the Oct3/4 gene
[7]; 10 μM shikimic acid (water)
  Ratio of Oct3/4-positive cells (%) Mean: 29%
[7]; 10 mM shikimic acid (water)
  Ratio of Oct3/4-positive cells (%) Mean: 27%
[7]; shikimic acid in water, 10 μM and 10 mM
  Percentage of the cells positive for the Oct3/4 gene, on average: 27-29%
